In patent US20130145496A1, “FLAVIN ENZYME HAVING FLAVONOL 8-HYDROXYLASE ACTIVITY AND USE THEREOF” (SUNTORY HOLDINGS LIMITED, priority 2010, published 2013):

Test system: flavonol 8-hydroxylase (MFB088 crude enzyme)
Experiment: Hydroxylase activity of MFB088 crude enzyme on flavonoid substrates (UPLC-TOF MS, ion trap MS/MS)
Type: biochemical, Lotus japonicus
Conditions: 0.048 nmol substrate, FAD, NADPH, pH 7.0, 30° C., 15 minutes; product detected by UPLC-TOF MS / ion trap MS/MS; not detected in negative control
Protocol: The yeast cells were centrifuged and recovered, and then lysed using glass beads. The lysate was centrifuged at 8000×g for 10 minutes. The supernatant was recovered and further centrifuged at 15000×g for 10 minutes to give the crude enzyme fraction of the protein encoded by MFB088 (hereinafter referred to as the MFB088 crude enzyme).
MFB088 crude enzyme solution, 2 μl (containing 2.5 μg of proteins); 0.1 M KH2PO4/K2HPO4 solution (containing 0.4% ascorbic acid: pH 7.0), 88 μl; 0.048 nmol eriodictyol/5 […] of H2O; 0.001 nmol FAD and 0.48 nmol NADPH/5 μl of H2O.
NADPH was added to start the reaction. After the reaction proceeded at 30° C. for 15 minutes, 10 μl of glacial acetic acid was added to stop the reaction. An […] was further added to extract the phenol compound twice (the added […]: 70 μl and 50 μl). The organic layer was recovered and used as a sample (hereinafter referred to as “MFB088 crude enzyme reaction product”). The components were analyzed by UPLC-TOF MS and ion trap MS/MS.
For analysis of the MFB088 crude enzyme reaction product, Waters Acquity UPLC™ system (Waters Corporation) equipped with time-of-flight mass spectrometer LCT Premier (Waters Corporation, Massachusetts, USA) was used. The analysis was performed using an ACQUITY UPLC™ BEH C18 column (particle diameter of 1.7 μm, column size of 2.1 mm I.D.×100 mm, Waters Corporation) under the conditions of flow rate of 0.3 ml/min and column temperature at 40° C. Using solvent A (0.1% formic acid-acetonitrile) and solvent B (0.1% formic acid aqueous solution), the reaction product was eluted by linear gradient from 70% B in 0 minute to 70% A in 20 minutes. The reaction product was detected by the time-of-flight mass spectrometer in the cation detection mode set forth below: capillary voltage of 2500 V, sample cone of 100 V, desolvation temperature at 250° C., source temperature at 120° C., and nitrogen gas flow of 6001/hour.
The components of the MFB088 crude enzyme reaction product was analyzed by ion trap MS/MS. High performance liquid chromatography (HPLC) system Agilent 1200 series (Agilent Technologies, California, USA) equipped with ion trap mass spectrometer LTQ XL (Thermo Fisher Scientific, Massachusetts, USA) was used for the MS/MS analysis. HPLC was performed using a TSKgel ODS-80™ column (particle diameter of 5 μm, column size of 4.6 mm I.D.×150 mm, TOSOH, Japan) under the conditions of flow rate of 0.5 ml/min and column temperature at 40° C. Using solvent A (0.1% formic acid-acetonitrile) and solvent B (0.1% formic acid aqueous solution), the reaction product was eluted by linear gradient from 70% B in 0 minute to 85% A in 30 minutes. The reaction product was ionized by electrospray ionization method and cations were detected under the following conditions: spray voltage of 4.0 kV, capillary temperature at 300° C., nitrogen sheath of 40 units, and auxiliary gas of 15 units. In the MS/MS analysis of the reaction product [M+H]+, collision-induced dissociation (CID) was performed under the conditions below to detect the fragment peak: normalized collision energy of 35, activation Q of 0.25 and activation time for 30 ms.
MFB088 crude enzyme solution, 2 μl (containing 2.5 μg of proteins); 0.1 M KH2PO4/K2HPO4 solution (containing 0.4% ascorbic acid: pH 7.0), 88 μl; 0.048 nmoleriodictyol/5 μl of H2O; 0.001 nmol FAD and 0.48 nmol NADPH/5 μl of H2O.
MFB088 crude enzyme solution, 2 μl (containing 2.5 μg of protein); 0.1 M KH2PO4/K2HPO4 solution (containing 0.4% ascorbic acid: pH 7.0), 88 μl; 0.048 nmol luteolin/5 μl of H2O; 0.001 nmol FAD and 0.48 nmol NADPH/5 μl of H2O.
The reactivity requiring kaempferol and apigenin as substrates was analyzed. The reaction product was recovered in a manner similar to EXAMPLES described above and the components were analyzed by UPLC-TOF MS.

SMILES	hydroxylation of substrate by the MFB088 crude enzyme
O=c1c(O)c(-c2ccc(O)c(O)c2)oc2cc(O)cc(O)c12 [quercetin]	substituted with hydroxyl group at position 8 and converted into gossypetin
O=c1c(O)c(-c2ccc(O)cc2)oc2cc(O)cc(O)c12 [kaempferol]	hydroxyl group is attached to kaempferol at position 8

Continued, values first:

hydroxylation of substrate by the MFB088 crude enzyme	SMILES
two hydroxyl groups were attached	O=C1C[C@@H](c2ccc(O)cc2)Oc2cc(O)cc(O)c21 [naringenin]
hydroxyl group is attached to luteolin	O=c1cc(-c2ccc(O)c(O)c2)oc2cc(O)cc(O)c12 [luteolin]
hydroxyl group is attached to apigenin	O=c1cc(-c2ccc(O)cc2)oc2cc(O)cc(O)c12 [apigenin]
hydroxyl-substituted	O=C1C[C@@H](c2ccc(O)c(O)c2)Oc2cc(O)cc(O)c21 [eriodictyol]
two hydroxyl groups were attached	O=C1c2c(O)cc(O)cc2O[C@H](c2ccc(O)c(O)c2)[C@H]1O [dihydroquercetin]

Test system: low density lipoprotein receptor (LDLR)
Experiment: not given
Conditions: through activation of extracellular signal-regulated kinase (ERK); cited from earlier work

SMILES	effect on LDLR
O=c1c(O)c(-c2ccc(O)c(O)c2)oc2c(O[C@@H]3O[C@H](CO)[C@@H](O)[C@H](O)[C@H]3O)c(O)cc(O)c12 [gossypin, gossypetin-8-glucoside]	upregulates low density lipoprotein receptor (LDLR)

Test system: nuclear factor-κB (NF-κB)
Experiment: not given
Conditions: leading to cell apoptosis potentiation; cited from earlier work

SMILES	effect on activation of NF-κB
O=c1c(O)c(-c2ccc(O)c(O)c2)oc2c(O[C@@H]3O[C@H](CO)[C@@H](O)[C@H](O)[C@H]3O)c(O)cc(O)c12 [gossypin, gossypetin-8-glucoside]	inhibits the activation of nuclear factor-κB (NF-κB)
